Experimental findings from US20130172320A1, “PYRIDO [4,3-B] INDOLE AND PYRIDO [3,4-B] INDOLE DERIVATIVES AND METHODS OF USE” (priority 2010, published 2013) are described below.

Test [1] has as its target T1, rat adrenergic α1A receptor (Rattus norvegicus, UniProt P43140).
T1 construct: rat adrenergic α1A receptor obtained from Wistar Rat submaxillary glands; from tissue; host or cells: Wistar Rat submaxillary glands
T1 sequence (P43140 1-466): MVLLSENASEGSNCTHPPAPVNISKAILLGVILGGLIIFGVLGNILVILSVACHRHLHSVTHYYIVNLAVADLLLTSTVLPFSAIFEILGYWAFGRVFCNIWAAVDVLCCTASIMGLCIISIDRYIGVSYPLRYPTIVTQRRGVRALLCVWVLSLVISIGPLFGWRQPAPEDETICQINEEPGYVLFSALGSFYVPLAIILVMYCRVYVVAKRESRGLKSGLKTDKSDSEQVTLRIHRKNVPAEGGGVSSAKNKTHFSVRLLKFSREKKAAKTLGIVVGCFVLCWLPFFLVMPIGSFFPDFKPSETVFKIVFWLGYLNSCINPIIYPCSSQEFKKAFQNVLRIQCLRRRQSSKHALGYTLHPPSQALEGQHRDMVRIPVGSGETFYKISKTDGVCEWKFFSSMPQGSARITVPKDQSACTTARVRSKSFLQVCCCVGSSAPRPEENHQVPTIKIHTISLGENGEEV
The experiment in a line: Adrenergic α1A radioligand binding ([3H]Prazosin). As to conditions: compound at 0.1 μM; read-out: Percentage inhibition of ligand binding, Adrenergic (0.1 μM) a1A. On the set-up: species or system Wistar Rat. The procedure: To evaluate in radioligand binding assays the activity of compounds of the invention, rat adrenergic α1A receptor obtained from Wistar Rat submaxillary glands (Michel, A. et al, Br. J. Pharmacol. 98:883, 1989) in a modified Tris-HCl buffer (50 mM Tris-HCl buffer, pH 7.4, 0.5 mM EDTA) was used. Compounds of the invention were incubated with 0.25 nM [^3H]Prazosin for 60 min at 25° C. Non-specific binding was estimated in the presence of 10 μM phentolamine Receptor proteins were filtered and washed, the filters were then counted to determine [^3H]Prazosin specifically bound. Compounds of the invention were screened at 1 μM or lower, using 1% DMSO as vehicle. Biochemical assay results are presented as the percent inhibition of specific binding in Table 3.

The target of test [2] is T2, human recombinant serotonin (5-Hydroxytryptamine) 5-HT2C receptor (Homo sapiens, UniProt P28335).
T2 construct: expressed in transfected cells; host or cells: Chinese hamster ovary (CHO) K1 cells
T2 sequence (P28335 33-458): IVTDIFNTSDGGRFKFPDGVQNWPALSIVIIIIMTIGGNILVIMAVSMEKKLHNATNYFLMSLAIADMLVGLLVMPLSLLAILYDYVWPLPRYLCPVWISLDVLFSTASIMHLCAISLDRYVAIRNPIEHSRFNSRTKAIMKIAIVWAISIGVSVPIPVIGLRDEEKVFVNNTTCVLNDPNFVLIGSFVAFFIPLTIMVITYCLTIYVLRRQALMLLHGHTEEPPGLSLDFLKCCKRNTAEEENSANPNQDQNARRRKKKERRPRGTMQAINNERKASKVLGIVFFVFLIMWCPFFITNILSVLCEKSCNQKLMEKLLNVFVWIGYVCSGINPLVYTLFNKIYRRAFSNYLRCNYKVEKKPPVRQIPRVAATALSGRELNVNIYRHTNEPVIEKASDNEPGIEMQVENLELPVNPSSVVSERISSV
In words: Serotonin 5-HT2C radioligand binding ([3H]Mesulergine). As to conditions: compound at 0.1 μM; read-out: Percentage inhibition of ligand binding, Serotonin (0.1 μM) 5-HT2C. The procedure:
To evaluate in radioligand binding assays the activity of compounds of the invention, human recombinant serotonin (5-Hydroxytryptamine) 5-HT2C receptor expressed in Chinese hamster ovary (CHO) K1 cells (Wolf, W. et al, J. Neurochem. 69:1449, 1997) in a modified Tris-HCl buffer (50 mM Tris-HCl, pH 7.4, 0.1% Ascorbic Acid, 10 μM Pargyline) was used. Compounds of the invention were incubated with 1 nM [^3H]Mesulergine for 60 min at 25° C. Non-specific binding was estimated in the presence of 1 μM Mianserin. Receptor proteins were filtered and washed, the filters were then counted to determine [^3H]Mesulergine specifically bound. Compounds were screened at 1 μM or lower, using 1% DMSO as vehicle. Biochemical assay results are presented as the percent inhibition of specific binding in Table 4.

For orientation: inhibition means the change of the read-out against control, counted positive when it falls. Turning to `C#CCC1(C)CN(C)Cc2c1n(C)c1ccc(C)cc21` (stereo not shown) [Compound 47, 2,4,5,8-tetramethyl-4-(prop-2-ynyl)-2,3,4,5-tetrahydro-1H-pyrido[4,3-b]indole], the inhibition at 0.1 µM in test [1] is 16%; in test [2], 19%.
For the compound `Cc1ccc2c(c1)c1c(n2C)C(C)(CCc2nc(-c3ccccc3)cs2)CN(C)C1` (stereo not shown) [Compound 48], the inhibition at 0.1 µM was 34% in test [1] and 25% in test [2].
